{
  "source": "patent US7846434B2",
  "about": "“Materials and methods for improved immunoglycoproteins” (Trubion Pharmaceuticals, Inc., priority 2006, dated 2010)",
  "key": {"CD16 (Fcγ RIII)": {"system": "CD16 (Fcγ RIII)", "assay": "Binding of SMIP bound on WIL2-S cells to soluble FcγR-MIg fusion (CD16), flow cytometry", "method": "The assays were carried out as follows. […] The cells were then incubated with the desired FcγR-MIg fusion in the same diluent at a concentration of 1 μg/ml on ice for 45 minutes.\nThe complexes (WIL2-S cells/SMIP/FcγR-MIg) were then incubated with PE conjugated AffiniPure F(Ab′)2 Goat Anti-Mouse IgG [Jackson Immunoresearch] (a mouse Fc-specific antibody with minimal cross reactivity with human Fc) at a 1:100 dilution. The cells were analyzed by one-color flow cytometry on a FACsCalibur using CellQuest software (Becton Dickinson).\nIf TRU-016 supernatants from Example 2 were used in this assay instead of purified TRU-016 protein, the SMIP concentration in the supernatant was quantified by direct staining of WIL2-S cells with diluted supernatant along with a TRU-016 standard. TRU-016 was detected by staining with FITC conjugated F(Ab′)2 Goat Anti-Human (gamma) [Caltag H10101] at a 1:50 dilution."}, "[1]": {"system": "human CD16 (low affinity polymorphism), FcγRIIIa", "assay": "Simultaneous binding of TRU-016 to CD37 (Daudi cells) and CD16:MuIgGFc fusion", "procedure": "TRU-016 produced as described in Example 8 was tested in the following assay, which simultaneously evaluates the ability of the TRU-016 binding domain to bind to a CD37 expressing target cell and the ability of the Fc portion of the TRU-016 SMIP to bind a fusion protein of human CD16 and murine IgG Fc.\nThe target cell utilized is the Daudi (ATCC CRL-213) cell line. Daudi cells are a human B-lymphoblastoid cell line derived from a Burkitt's lymphoma and express high levels of CD37. The custom soluble CD16:MuIgGFc fusion protein is human CD16 (low affinity polymorphism) linked to a murine IgG Fc.\nThe appropriate number of Daudi cells (350,000/well times the number of wells) is aliquoted and centrifuged at 250×g for 5 minutes at 15° C. The supernatant is removed. One percent cold paraformaldehyde is prepared by diluting the 4% stock from USB (USB US19943) 1:4 with FACS Buffer. FACS Buffer is prepared by adding 2% FBS (Gibco) to Dulbecco's PBS (Invitrogen) (v/v) and sterile filtering with a 0.22 μm filter. FACS Buffer is stored and used at 4° C. […]\nEach sample's bound fluorescence is measured on a BD FACSCalibur flow cytometry system and analyzed with Cell Quest Pro software (Becton Dickinson, ver 5.2). The GeoMean fluorescence intensity for each sample is plotted relative to the TRU-016 concentration. […]"}},
  "data": [
    {"smiles": "O[C@H]1[C@H](O)[C@@H](O)CN2CC[C@H](O)[C@H]12", "note": "[castanospermine]", "values": [
      {"measurement": "CD16 binding of Protein A-purified TRU-016 (mean fluorescence intensity)", "setting": "CD16 (Fcγ RIII); CHO cells cultured with 0, 10, 25, 50, 100 or 200 μM castanospermine", "value": "dose-dependent increase"},
      {"measurement": "CD16 binding of TRU-015 purified protein (geometric mean fluorescence intensity)", "setting": "CD16 (Fcγ RIII); low affinity allele, CHO cells cultured with 0, 2, 5, 10, 30 or 100 μg/mL castanospermine", "value": "dose-dependent increase"},
      {"measurement": "maximal improvement in TRU-016 glycovariant binding to CD16", "setting": "[1]; CHO-K1 produced, CS concentrations of 100 μM or greater", "value": "approximately 7 fold"},
      {"measurement": "binding to CD16 (GeoMean fluorescence, D-parameter) of DG44 CHO produced TRU-016", "setting": "[1]; relative to concentration of CS up to 400 μM, then levels off", "value": "dose-dependent binding response"}
    ]}
  ]
}
